The source of these data is a melting point compilation (Tetko et al.; mined from patent text by program, amines drawn as free bases though some values may be those of a salt).

The melting point is the temperature of the solid-liquid transition.

`CCCN(CCC)C1CCc2cccc(-c3ccc4ccccc4n3)c2C1` (stereo unspecified): the melting point came out at 82 °C.

With `O=C(O)CNC(=O)c1c(Cl)cc(N2C(=O)N3CCCC3(Cc3ccc(Br)cc3)C2=O)cc1Cl` (stereo unspecified), the melting point lay within 157 to 158 °C.

Regarding `COc1cccc(CCc2ccccc2OC[C@H]2CCCN(C(=O)OC(C)(C)C)C2)c1`, the melting point fell in the range of 150 to 152 °C.

`COC(=O)COc1cccc(CCNC(=O)/C=C/c2cccnc2)c1` registered a melting point of 102 to 104 °C.

As to `COc1cc(OCc2ccccc2)ccc1-c1nc2ncccc2[nH]1`, the melting point was found to be 244 °C.

Regarding `CCc1nc(N)nc(N)c1-c1ccc(NC)c([N+](=O)[O-])c1`, the melting point was in the range of 262 to 265 °C.

The compound `Cc1cc(CCCCCCCOc2ccc(C(=O)OC(C)(C)C)cc2)on1` displayed a melting point of 76 °C.

Turning to `COc1ccc(C2(O)CCCCC2=O)c(OC)c1OC` (stereo unspecified), the melting point was in the range of 88 to 91 °C.

As for `CN1CCC(Sc2ccc3[nH]c(=O)[nH]c(=O)c3c2)CC1`, the melting point was more than 260 °C.

`CCCCCCCCNC(=O)c1cnc2cccc(C)n2c1=O`: the melting point lay in the range of 108 to 110 °C.

In turn, `Oc1ccc(C2OCC3(CO2)COC(c2ccc(O)cc2)OC3)cc1` (stereo unspecified) showed a melting point of 251 to 253 °C.

For `COc1nc(NC#N)nc(OC)n1`, the melting point is more than 300 °C.

The compound `O=Cc1c(O)c(O)cc2ccccc12` came in with a melting point of 132 to 133 °C.

The compound `CCc1nc2c(N)nc3cc(OCc4ccccc4)ccc3c2n1CCCCNS(C)(=O)=O` registered a melting point of 214 to 215 °C.

`Cc1cc2c(OCc3ccc(-c4nnn[nH]4)cc3)cccc2o1` yielded a melting point of 196 to 197 °C.

For `CCN1CCNC(=O)c2ccc(Nc3ncc(Cl)c(N[C@@H]4CCCC[C@H]4NS(C)(=O)=O)n3)cc21`, the melting point lay in the range of 216 to 220 °C.

With `COC(=O)c1ccc(N=C2NCCN2)c(C)c1`, the melting point fell in the range of 193 to 194 °C.

`CCc1noc(C)c1-c1[nH]c2ccccc2c1CC(=O)N(C)C` had a melting point of 176 to 178 °C.

In turn, `COc1ccc(C2(CC(=O)O)CNC(=O)C2)cc1OC` (stereo unspecified) registered a melting point of 162 to 165 °C.

Regarding `CCOC(=O)COc1ccc(N)cc1C(F)(F)F`, the melting point was in the range of 78 to 80 °C.

`CC(=O)NC(CSSc1ccccc1C(=O)Nc1ccc(S(N)(=O)=O)cc1)C(=O)O` (stereo unspecified) yielded a melting point of 218 to 220 °C.

Regarding `C#CCOc1cc(-c2ncc(C(F)(F)F)c(C)c2Cl)c(F)cc1Cl`, the melting point is 95 to 98 °C.

Compound `CC(=O)OC1CSC(Oc2cncc(-c3cccc(C#N)c3)c2)C(OC(C)=O)C1OC(C)=O` (stereo unspecified) displayed a melting point of 130 to 131 °C.

Turning to `Cc1ccc(NC(=O)c2cccc(C(F)(F)F)c2)cc1-c1ccc2ncsc2c1`, the melting point is 94 to 96 °C.

`CCCC1=C(C(=O)OCC)C(c2ccccc2Cl)c2cn(C(=O)Nc3ccccc3)nc2N1` (stereo unspecified) gave a melting point of 145 to 147 °C.

Compound `Cc1ccc(S(=O)(=O)N(c2ccc([N+](=O)[O-])cc2Cl)C(C)C)cc1` returned a melting point of 154 to 157 °C.

With `O=C(OCCn1cnc2c(Cl)nc3ccccc3c21)c1ccccc1`, the melting point is 186 °C.

Compound `CC(C)(c1ccc(N)c([N+](=O)[O-])c1)c1ccc(N)c([N+](=O)[O-])c1` displayed a melting point of 207 to 210 °C.

On to `CCOC(=O)c1ncn2c1CN=C(Cl)c1cc(OC)ccc1-2`, for which the melting point was determined as 186 °C.

In turn, `COc1cc(CCCO)ccc1OCc1coc(/C=C/c2ccccc2)n1` gave a melting point of 95 to 96 °C.

In turn, `C1CC1Nc1nc(NC2CC2)nc(NC2CC2)n1` had a melting point of 75 to 77 °C.

As to `CC(C)(C)c1cccc(S(=O)(=O)n2c(Cc3cccc(C(=O)O)c3)cc3cc(C(F)(F)F)ccc32)c1`, the melting point was 146 °C.

`COC(=O)c1ccc2cc(-c3ccc4c(c3)C(C)(C)CCC4(C)C)n(C)c2c1` displayed a melting point of 156 °C.

Compound `O=C(N1CCN(c2ccncc2Cl)CC1)N1CCN(S(=O)(=O)c2ccc(F)cc2)CC1` returned a melting point of 143 to 144 °C.

`CC(NC(=O)c1cc2ccccc2[nH]1)C(=O)N(c1ccccc1)c1ccccc1` (racemic) had a melting point of 242 °C.

In turn, `CC(C)(C)c1cc([N+](=O)[O-])cc(C(C)(C)C)c1O` displayed a melting point of 167 to 168 °C.

Compound `Cc1cccc(-c2nc3ccccn3c2-c2ccnc(-c3ccc(OCc4cn(C)cn4)cc3)c2)n1` returned a melting point of 120 °C.

`CC(=O)NC[C@H]1CN(c2ccc(N3CCC(Cc4noc(C)n4)CC3)c(F)c2)C(=O)O1`: the melting point fell in the range of 136 to 138 °C.

In the case of `CCCn1nc(C2CC2)c(C(N)=O)c1Cc1ccc(-c2ccccc2S(=O)(=O)NC(=O)c2ccccc2)cc1`, the melting point lay within 187 to 191 °C.

Compound `CS(=O)(=O)Oc1ccc(CCOc2ccc(-c3ncccc3C(=O)O)cc2C#N)cc1` returned a melting point of 85 to 86 °C.

In the case of `CC(=O)N(C(C)=O)c1nc2n(n1)Cc1ccccc1-2`, the melting point was 174 to 176 °C.

As to `COC(=O)CCC/C=C/c1nn(-c2ccc(NC(C)=O)cc2)c2c1CCC2`, the melting point lay in the range of 118 to 120 °C.

`CCCCCCCCOc1ccc(-c2ccc(C(C)O)cc2)cc1` (single isomer, unassigned; (-)) showed a melting point of 124 °C.

Compound `NS(=O)(=O)c1ccccc1-c1ccc(C(=O)N2Cc3ccc(C(=O)NCc4cccnc4)n3Cc3ccccc32)cc1` returned a melting point of 153 to 156 °C.

The compound `Cc1cccc(NC(=O)NCC(=O)N(CC(=O)Oc2ccccc2)c2ccccc2)c1` had a melting point of 206 °C.

Turning to `O=C(CC1=C(n2nc(-c3c(-c4ccccc4)nn4ccccc34)ccc2=O)CCCC1)N1CCCC1`, the melting point was 178 to 179 °C.

On to `CCCc1nn(C)c2c(=O)[nH]c(Cc3ccc(NC=O)cc3)nc12`, for which the melting point lay within 260 to 261 °C.

Compound `CC(O)c1ccc(C(O)C(C)(C)C)cc1` (stereo unspecified) had a melting point of 118 to 121 °C.

For the compound `O=C(O)C(O)N1C(=O)CCN1c1cccc(Cl)c1` (stereo unspecified), the melting point was 134 to 136 °C.

The compound `CCn1cc(C(=O)O)c(=O)c2cc(F)c(N3CCC(CNC)C3)cc21` (stereo unspecified) had a melting point of 247 to 250 °C.

As for `CCN(CC)CCCNC(=O)Cn1cnc(-c2ccccc2)c1-c1ccccc1`, the melting point is 81 to 83 °C.

`CCOC(=O)C(C)(C)Oc1ccc(-c2ccc(CCNC(=O)Cc3ccccc3)cc2)cc1` registered a melting point of less than 20 °C.

`Cc1[nH]c2ccccc2c1CN1CCC(c2c(Cl)cccc2Cl)CC1` showed a melting point of 168 to 170 °C.

Compound `NS(=O)(=O)c1ccc(-c2noc(-c3cnn4c(C(F)(F)F)cc(-c5ccc(C(F)(F)F)cc5)nc34)n2)s1` returned a melting point of 276 °C.

As to `Cc1cc(-c2c(-c3ccc(F)cc3)nn3cccnc23)ccn1`, the melting point was in the range of 164 to 166 °C.

In the case of `C(=C\c1cc(/C=C/c2ccc3cc[nH]c3c2)n[nH]1)/c1ccc(-c2ccccc2)cc1`, the melting point lay within 273 to 276 °C.

In turn, `CCC(C)(O)CNc1c(N)c(Cl)nc2ccccc12` (stereo unspecified) displayed a melting point of 99 to 101 °C.

Compound `Clc1ccc2snc(-c3ccc(C4=NCCN4)cc3)c2c1` displayed a melting point of 195 °C.

In turn, `CC(C)(C(=O)NO)C(O)Cc1ccccc1` (stereo unspecified) showed a melting point of 95 to 96 °C.

In the case of `O=S(=O)(NCCCCl)c1ccc(Nc2ncnc3cc(Cl)ccc23)cc1`, the melting point was 168 to 171 °C.

`Nc1c([N+](=O)[O-])cnn1-c1c(Cl)cc(Cl)cc1Cl` had a melting point of 218 to 220 °C.

Turning to `Cc1c(NC(=O)c2ccc(-c3cccc(F)c3)cc2)ccc2cc(CN3CCCC3)cnc12`, the melting point lay in the range of 158 to 159 °C.

For `C=CCn1c(SC(Cl)=C(Cl)C#N)nnc1C(F)(F)F`, the melting point was 45 to 48 °C.

Compound `CCC(=O)c1c(C(C)C)nn2ccccc12` came in with a melting point of 41 to 42 °C.

`CCC(CC)c1nn(-c2ccc(Br)cn2)cc1CCCOc1c(C)cccc1CC(=O)O` came in with a melting point of 120 to 121 °C.

`CCCc1nc2c(N)nc3cc(-c4ccc(NC(C)=O)cc4)ccc3c2s1`: the melting point fell in the range of 252 to 255 °C.

In the case of `O=c1[nH]nc2c3cc(F)ccc3[nH]c(=O)n12`, the melting point was more than 350 °C.

Turning to `Cc1nc2cnccc2n1-c1ccc(OCc2cccc(SCc3nc4cc(F)ccc4s3)c2)cc1`, the melting point is 119 to 121 °C.

`CCOC(Nc1ccccc1)(OCC)C1(Cl)C=C(C)N=C(C(=O)c2ccc(Cl)cc2)C1` (stereo unspecified): the melting point is 134 to 135 °C.

The compound `CC(C)Cc1nc(-c2ccccc2)cnc1O` showed a melting point of 205 to 207 °C.

Compound `CCCC(CCC)C(=O)NC(C)C(=O)OC` (stereo unspecified) had a melting point of 72 to 73 °C.

For `Cn1c(C(F)(F)F)cc(=O)n(-c2c(F)cc(Cl)c3cc(CO)oc23)c1=O`, the melting point lay within 198 to 199 °C.

For `Cc1cc(-c2cc3cc(OCCNC[C@H](O)COc4ccccc4)ccc3o2)no1`, the melting point is 144 to 146 °C.

The compound `COc1ccc(CC(=Nc2ccccc2)NC(=S)NCCO)cc1` had a melting point of 117 to 119 °C.

`Cc1ccc(Cn2cnc3c(-c4ccco4)ncnc32)cc1` had a melting point of 166 to 167 °C.

In the case of `COc1ccc(P(=O)(c2ccc(OC)cc2)c2ccc(OC)cc2)cc1`, the melting point was found to be 145 °C.

As for `CN1C(=O)C(C(=O)Nc2ccccc2)c2cc3c(cc2S1(=O)=O)CCCC3` (stereo unspecified), the melting point lay in the range of 203 to 204 °C.

Take `C/C(=C\c1ccc(OC(C)C)cc1Oc1ncc(C(F)(F)F)cc1Cl)C(=O)NS(=O)(=O)NCCc1cccs1`: the melting point lay within 130 to 131 °C.

Turning to `CN1CCN(C2=N/C(=C\c3c[nH]c4ncc(-c5ccccc5)cc34)C(=O)N2)CC1`, the melting point worked out at 304 °C.

Take `CC1=Nc2ccc(S(N)(=O)=O)cc2S(=O)(=O)N1`: the melting point was 295 to 297 °C.

Take `COc1cc(S(=O)(=O)Nc2ccccc2)c(OC)cc1NC(=O)[C@@](C)(O)C(F)(F)F`: the melting point is 194 to 195 °C.

Compound `COc1cc2c(cc1OC)=C1C(C#N)SC(=N)N1CC=2` (stereo unspecified) came in with a melting point of 229 to 230 °C.

In turn, `COc1ccc(-c2cc(C(=O)NCCCCCCCCc3ccccc3)cc(-c3cccc(C(F)(F)F)c3)c2OCC(=O)O)cc1` returned a melting point of 139 to 144 °C.

Turning to `CC(C)c1ccc(-c2coc3cc(O)c(O)cc3c2=O)cc1`, the melting point was in the range of 181 to 182 °C.

As for `Cc1c(C#N)cnc(N)c1C#N`, the melting point lay within 222 to 223 °C.

`Cc1ccc2c(c1)C=Cc1cc(C)ccc1C2c1cn(-c2ccnc(N3C[C@H](O)C[C@H]3C(=O)O)n2)c(=O)[nH]c1=O` yielded a melting point of 208 to 210 °C.
